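Growth conditions: 96-well plates. Treatment: test compound, 48 hours, 5 concentrations. Analysis: linear interpolation between bracketing concentrations; unreached endpoints set to highest concentration. GI50: concentration for 50% inhibition of growth. TGI: total growth inhibition.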
Columns and labels:
Assay in all cases: DTP human tumour cell line panel, 48 h
[1] = tested on: A549 NSCLC
[2] = tested on: OVCAR-3 ovarian
[3] = tested on: SF-539 CNS
[4] = tested on: CCRF-CEM leukemia
[5] = tested on: OVCAR-8 ovarian
[6] = tested on: UACC-62 melanoma
[7] = tested on: K-562 leukemia
[8] = tested on: NCI-H522 lung
[9] = tested on: SK-OV-3 ovarian
[10] = tested on: SK-MEL-5 melanoma

SMILES	GI50 [1] [µM]	TGI [1] [µM]	GI50 [2] [µM]	TGI [2] [µM]	GI50 [3] [µM]	TGI [3] [µM]	GI50 [4] [µM]	TGI [4] [µM]	GI50 [5] [µM]	TGI [5] [µM]	GI50 [6] [µM]	TGI [6] [µM]	GI50 [7] [µM]	TGI [7] [µM]	GI50 [8] [µM]	TGI [8] [µM]	GI50 [9] [µM]	TGI [9] [µM]	GI50 [10] [µM]	TGI [10] [µM]
C=CCN(/C=C1/C(=O)O[C@H](COC)[C@@]2(C)C1=C(O)C(=O)C1=C2[C@H](OC(C)=O)C[C@]2(C)C(=O)CC[C@@H]12)CC=C	0.382	> 8.15	0.562	> 10	0.692	> 5.24	0.709	> 6.51	2.87	> 10	0.144	4.45	> 8.1	> 10	1.41	> 10	0.331	> 8.47	3.16	> 10
COc1ccc(C2SCC(=O)N2NC(=O)C(O)c2ccccc2)cc1OC (stereo not given)	> 100	> 100	> 100	> 100	> 100	> 100	> 100	> 100	> 100	> 100	> 100	> 100	> 100	> 100	> 100	> 100	> 100	> 100	> 100	> 100
CC1CC#CCOC(=O)CCCC1=O (stereo not given)	–	> 100	–	> 100	–	> 100	–	> 100	–	> 100	–	> 100	–	> 100	–	> 100	–	> 100	–	> 100
CC1CC2CC(=O)CC3(C1)C2CCCN3CCCO (stereo not given)	–	> 100	–	> 100	–	> 100	–	> 100	–	> 100	–	> 100	–	> 100	–	> 100	–	> 100	–	> 100
Cc1ccc(-c2cc(-c3ccco3)c(C#N)c(=O)[nH]2)cc1	–	> 100	–	> 100	–	> 100	–	> 100	–	> 100	–	> 100	–	> 100	–	> 100	–	97.6	–	> 100
CCn1c(C(=O)N(C2CC2)C2CC2)cc2c3c(ncn3C)c(Nc3cc(C)n(C)n3)nc21	> 100	> 100	> 100	> 100	> 100	> 100	> 100	> 100	> 100	> 100	> 100	> 100	> 100	> 100	> 100	> 100	> 100	> 100	> 100	> 100
CN(C)c1ccc([O-])cc1.CN(C)c1ccc([O-])cc1.CN(C)c1ccc([O-])cc1.CN(C)c1ccc([O-])cc1.[Ti+4]	51.9	> 100	> 100	> 100	> 100	> 100	43.7	> 100	73.7	> 100	> 100	> 100	37.9	> 100	33.2	98.2	> 100	> 100	51.5	> 100
COC(=O)C1C(O)CC(c2ccccn2)N(Cc2ccccc2)C1c1ccccn1 (stereo not given)	–	> 100	–	> 100	–	> 100	–	> 100	–	> 100	–	> 100	–	> 100	–	> 100	–	> 100	–	> 100
C[C@H](NC(=O)[C@@H]1CSSC[C@@H](NC(=O)c2nc3ccccc3cc2O)C(=O)NCC(=O)N1C)c1ccccc1	7.06	15.8	0.584	1.35	1.63	9.13	1.89	10.5	5.16	17.7	5.6	13.2	0.663	3.13	3.13	10.2	5.59	21.2	0.582	3.82
COc1ccc(-c2nc3sc(-c4ccc(Cl)cc4)cn3n2)cc1	1.59	5.89	1.72	7.2	1.85	21.5	> 50	> 50	2.6	> 50	8.24	> 50	29.4	> 50	14.9	> 50	11.7	> 50	14	> 50
CN1CCN(c2ccc(NC(=O)c3nc4ccc5[nH]ncc5c4c4c3CCCC4)cc2C(F)(F)F)CC1	1.12	3.05	0.939	1.81	0.851	1.61	1.07	3.33	0.921	1.91	0.973	1.83	0.968	2.11	0.856	1.88	1.48	5.25	1.53	5.23
Cc1ccc(/C(=N\N=C(N)N)c2ccccc2)cc1	0.433	17.3	0.228	0.597	0.265	0.925	0.689	> 100	0.521	14.3	0.438	15.8	0.339	> 100	0.372	13.3	0.42	10.4	0.353	1.73
O=C(O)COc1ccc(O)c2c1C(=O)CCCC2=O	–	> 100	–	> 100	–	> 100	–	> 100	–	> 100	–	> 100	–	> 100	–	> 100	–	> 100	–	> 100
